Test results published in patent US20240287614A1, “RECIPROCAL MICRORNA-MRNA PAIRINGS AS BIOMARKERS AND THERAPEUTIC TARGETS IN CANCER” (UNIVERSITY OF MARYLAND, EASTERN SHORE, priority 2023, published 2024).

Tests used:
[1] = test system: prostate cancer (LNCaP and PC-3) and prostate cancer (RC77 T/E and MDA PCa 2b) cell lines; experiment: Caspase 3/7 activity-based apoptosis assay, prostate cancer cell lines; design: species or system human; conditions: for apoptosis (caspase 3/7 activity), docetaxel treatment alone: without miRNA mimic/antagomir transfection
Method: […] RC77 T/E, a primary prostate cancer cell line derived from a patient, was kindly provided by Dr. Johng Rhim at Center for Prostate Disease Research (CPDR) in Rockville, MD. LNCaP and PC-3 were served as prostate cancer cell line models, and RC77 T/E and MDA PCa 2b were served as prostate cancer cell models in the study. The cells were cultured in specific cell culture media, LNCaP was cultured in RPMI with 10% fetal bovine serum (FBS), PC-3 was cultured in DMEM with 10% FBS, MDA PCa 2b were cultured in BRFF-HPC1 with 20% FBS and RC77 T/E was cultured in Keratinocyte SFM with Human Recombinant Epidermal Growth Factor (EGF 1-53) and Bovine Pituitary Extract (BPE). Cells were maintained at 37° C. in a 5% CO2 incubator. LNCaP, PC-3 and MDA PCa 2b cells were seeded at density 3×10^4 cells/well in 6-well plates. RC77 T/E cells were seeded at density 5×10^4 cells/well in 6-well plates. The cells were allowed to grow for 24 h and then were either transfected with miR-34a-5p mimic, miR-99b-5p mimic, or miR-96-5p antagomir using DharmaFECT4 transfection reagent (Dharmacon), according to the manufacturer's protocol. After 24 h, the cells were replaced with fresh media then incubated for 24 h. miR-34a-5p mimic, miR-99b-5p mimic, miR-96-5p antagomir, and nonsense miRNA mimic and antagomir controls were purchased from Ambion. Nonsense/scrambled miRNA mimic and antagomir were used as negative controls.
For the measurement of apoptosis initiation by transfection of miRNA mimic or antagomir in prostate cancer cells, the transfected cells 5000 cells/well were seeded onto 96-well cell culture plates (Corning) and then incubated overnight. The miRNA mimic/antagomir transfected cells were then treated with vehicle or […] of Docetaxel. 24 h after the vehicle or drug treatment, the apoptosis assays were performed using Apo-ONE Caspase-3/7 Assay Kit (Promega Corporation) according to the protocol described by the manufacturer. 100 μL of homogeneous Caspase-3/7 reagent was added to the sample plate and incubated at room temperature for 1 h. Fluorescence was detected for measuring the apoptosis state (Caspase 3/7 activity) using Biotek Synergy HT Microplate Reader (BioTek) at wavelengths of 499 nm and 521 nm for excitation and emission, respectively.

PIK3CB = experiment: RT-qPCR of PIK3CB expression after miRNA mimic transfection; type: cell-based, human; conditions: African American and European American prostate cancer cells; vs nonsense/scrambled (NS) miRNA control
Method: (§1) […] RC77 T/E, a primary prostate cancer cell line derived from a patient, was kindly provided by Dr. Johng Rhim at Center for Prostate Disease Research (CPDR) in Rockville, MD. LNCaP and PC-3 were served as prostate cancer cell line models, and RC77 T/E and MDA PCa 2b were served as prostate cancer cell models in the study. The cells were cultured in specific cell culture media, LNCaP was cultured in RPMI with 10% fetal bovine serum (FBS), PC-3 was cultured in DMEM with 10% FBS, MDA PCa 2b were cultured in BRFF-HPC1 with 20% FBS and RC77 T/E was cultured in Keratinocyte SFM with Human Recombinant Epidermal Growth Factor (EGF 1-53) and Bovine Pituitary Extract (BPE). Cells were maintained at 37° C. in a 5% CO2 incubator. LNCaP, PC-3 and MDA PCa 2b cells were seeded at density 3×10^4 cells/well in 6-well plates. RC77 T/E cells were seeded at density 5×10^4 cells/well in 6-well plates. […]
(§2) For the measurement of gene expression level, total RNA was isolated using miRNeasy Mini Kit (50) (Qiagen) from the prostate cancer cells used in the study. Quantification of total RNA samples were done using NanoVue Plus spectrophotometer (GE Healthcare). […] Reverse transcription was performed using iScript Reverse Transcription Supermix kit (Bio-Rad) to generate cDNA then followed by performing quantitative PCR (qPCR) assays using SsoAdvanced Universal SYBR Green supermix kit (Bio-Rad). […]

PI3Kβ = experiment: Western blot of PI3Kβ in transfected prostate cancer cells; type: cell-based, human; conditions: mimic transfected vs NS transfected
Method: as §1
(§3) For measurement of the gene expression at protein level, proteins were extracted using M-PER Mammalian Protein Extraction Reagent (Thermo Fisher Scientific) with protease and phosphatase inhibitor cocktail (Thermo Fisher Scientific). Protein concentrations were quantified using BCA assay kit (Thermo Fisher Scientific). […]

IGFBP2 [2] = experiment: Western blot of IGFBP2 in transfected prostate cancer cells; type: cell-based, human; conditions: mimic transfected vs NS transfected
Method: as §1, §3

[3] = test system: prostate cancer (LNCaP and PC-3) and prostate cancer (RC77 T/E and MDA PCa 2b) cell lines; experiment: BrdU-labeling cell proliferation assay; type: cell-based, human; conditions: PC-3, RC77 T/E and MDA PCa 2b, 48 h transfection, vs NS
Method: as §1
LNCaP, PC-3, RC77 T/E and MDA PCa 2b cells were seeded at density 3×10^4 cells/well in 6-well culture plates. […] 100 μL of stop solution was used to stop further reaction and followed by checking absorbance at dual wavelengths of 450 nm and 540 nm using Multiskan FC microplate photometer (Thermo Scientific).

HIF1A [4] = experiment: RT-qPCR of HIF1A expression after miRNA mimic transfection; type: cell-based, human; conditions: African American and European American prostate cancer cells; vs nonsense/scrambled (NS) miRNA control
Method: as §1, §2

IGFBP2 [5] = experiment: RT-qPCR of IGFBP2 expression after miRNA mimic transfection; type: cell-based, human; conditions: African American and European American prostate cancer cells; vs nonsense/scrambled (NS) miRNA control
Method: as §1, §2

HIF1A [6] = experiment: Western blot of HIF1a in transfected prostate cancer cells; type: cell-based, human; conditions: mimic transfected vs NS transfected
Method: as §1, §3

[7] = RC77 T/E and MDA PCa 2b, 11 mM of Docetaxel, 24 h

Compound	docetaxel-induced cytotoxicity (caspase 3/7 activity), combination with docetaxel ([1]; LNCaP cells, 11 mM of Docetaxel, 24 h)	apoptosis (caspase 3/7 activity), transfection in the presence of docetaxel [1, 7]	cell apoptosis (caspase 3/7 activity) compared with NS transfected cells ([1]; absence of docetaxel (vehicle control), LNCaP, PC-3, RC77 T/E, MDA PCa 2b)	PIK3CB expression (RT-qPCR) (PIK3CB)	PI3Kβ protein level (Western blot) (PI3Kβ)	IGFBP2 protein level (Western blot) (IGFBP2 [2])	cell proliferation (BrdU labeling) [3]	HIF1A expression (RT-qPCR) (HIF1A [4])	IGFBP2 expression (RT-qPCR) (IGFBP2 [5])	HIF1a protein level (Western blot) (HIF1A [6])	apoptosis (caspase 3/7 activity), docetaxel treatment alone ([1]; LNCaP, 11 mM of Docetaxel, 24 h)	apoptosis (caspase 3/7 activity), docetaxel treatment alone [1, 7]	apoptosis (caspase 3/7 activity), docetaxel treatment alone ([1]; androgen-independent PC-3, 11 mM of Docetaxel, 24 h)
miR-34a-5p mimic: miRNA mimic of miR-34a-5p (SEQ ID NO: 1, UGGCAGUGUCUUAGCUGGUUGU), purchased from Ambion (listed as RNA, chemistry not given here; listed as Homo sapiens)	further enhanced	significantly induced apoptosis	overall generalized or significant increase	decreased	downregulated	downregulated	reduction	decreased	decreased	downregulated			
CC(=O)O[C@@]12CO[C@@H]1C[C@H](O)[C@@]1(C)C(=O)[C@H](O)C3=C(C)[C@@H](OC(=O)[C@H](O)[C@@H](NC(=O)OC(C)(C)C)c4ccccc4)C[C@@](O)([C@@H](OC(=O)c4ccccc4)[C@H]21)C3(C)C [docetaxel, reference compound]											significantly induced apoptosis	not	not
